Our source for the Observed efficacy values is US20240389594A1 (priority 2020, published 2024).

Common to all, as to format: cell-based
Assay [1] has as its system Septoria tritici. The assay can be described thus: Microtest, leaf blotch on wheat caused by Septoria tritici (SEPTTR), Example 2. The conditions noted are these: single compound, 7 days.
The test system of assay [2] is Botrytis cinerea.
For assay [3], the system named is Pyricularia oryzae. The conditions noted are these: PYRIOR, single compound, 7 days.
For assay [4], the system named is Alternaria solani. The assay can be described thus: Microtest, early blight caused by Alternaria solani (ALTESO), Example 1. As to conditions: single compound, 7 days.
Assay [5] deals with Colletotrichum orbiculare. The assay can be described thus: Microtiterplate test, anthracnose caused by Colletotrichum orbiculare (COLLLA), Example 1. As to conditions: single compound, 7 days.
Assay [6] concerns Septoria tritici. The conditions noted are these: 7 days.

Like-named read-outs stand apart in the source and are kept apart here.

On to `CON(Cc1ccc(-c2noc(C(F)(F)F)n2)cc1)C(=O)C1CC1` [Compound II-2, N-methoxy-N-[[4-[5-(trifluoromethyl)-1,2,4-oxadiazol-3-yl]phenyl]methyl]cyclopropanecarboxamide], for which, in assay [1] (0.25 ppm), the Observed efficacy stood at 9%.

In the case of `Cc1cccc(-n2nnn(C)c2=O)c1COc1ccn(-c2ccc(Cl)cc2)n1` [Methyltetraprol, metyltetraprole], the Observed efficacy in assay [2] (7 days) is reported as 52%; in assay [3] (0.004 ppm) it was 3%; in assay [3] (0.016 ppm), 11%; in assay [4] (0.004 ppm) it was 12%; in assay [4] (0.016 ppm), 31%; in assay [5] (0.063 ppm), 0%. In assay [1] (0.004 ppm), the Observed efficacy was found to be 0%.

On to `CCC(=O)Oc1c(OC)ccnc1C(=O)N[C@@H](C)C(=O)O[C@@H](C)[C@@H](C)c1ccccc1C` [Compound II-1, [(1 S,2S)-1-methyl-2-(o-tolyl)propyl] (2S)-2-[(4-methoxy-3-propanoyloxy-pyridine-2-carbonyl)amino]propanoate], for which the Observed efficacy stood at 13% in assay [2]; 10% in assay [3] (1 ppm); 15% in assay [6]; 42% in assay [4] (1 ppm); 0% in assay [5] (0.25 ppm); 0% in assay [5] (1 ppm).
